Experiments:
Assay in all cases: Nanosyn kinase profiling
Format in all cases: biochemical
Settings in all cases: read-out: Percentage inhibition; for inhibition at 0.1 µM: 0.1 µM inhibitor; for inhibition at 1 µM: 1 µM inhibitor
LCK = target: T1, LCK (Homo sapiens, UniProt P06239)
T1 construct: purchased Nanosyn (enzymatic panel); SGC in-house recombinant human kinases (DSF panel); Invitrogen (ALK1-6)
Method in brief: (§1)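 Percent inhibition of each kinase was measured with the inhibitor at 0.1 µM and at 1 µM, as part of a 200-kinase human selectivity panel.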

PRKX = target: T2, PRKX (Homo sapiens, UniProt P51817)
T2 construct: purchased Nanosyn (enzymatic panel); SGC in-house recombinant human kinases (DSF panel); Invitrogen (ALK1-6)
T2 sequence (P51817 1-358): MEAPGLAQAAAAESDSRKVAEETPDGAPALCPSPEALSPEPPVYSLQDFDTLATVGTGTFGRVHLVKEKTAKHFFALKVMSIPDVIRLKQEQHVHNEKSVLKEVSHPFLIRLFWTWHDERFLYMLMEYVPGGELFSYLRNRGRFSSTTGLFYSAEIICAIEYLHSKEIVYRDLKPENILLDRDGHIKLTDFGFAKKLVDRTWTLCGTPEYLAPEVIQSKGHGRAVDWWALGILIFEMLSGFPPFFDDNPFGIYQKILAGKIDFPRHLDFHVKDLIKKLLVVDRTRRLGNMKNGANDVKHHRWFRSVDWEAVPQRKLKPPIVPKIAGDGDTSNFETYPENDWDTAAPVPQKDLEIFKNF
Method in brief: as §1

PKCι = target: T3, PKCι (Homo sapiens, UniProt P41743)
T3 construct: purchased Nanosyn (enzymatic panel); SGC in-house recombinant human kinases (DSF panel); Invitrogen (ALK1-6)
T3 sequence (P41743 1-596): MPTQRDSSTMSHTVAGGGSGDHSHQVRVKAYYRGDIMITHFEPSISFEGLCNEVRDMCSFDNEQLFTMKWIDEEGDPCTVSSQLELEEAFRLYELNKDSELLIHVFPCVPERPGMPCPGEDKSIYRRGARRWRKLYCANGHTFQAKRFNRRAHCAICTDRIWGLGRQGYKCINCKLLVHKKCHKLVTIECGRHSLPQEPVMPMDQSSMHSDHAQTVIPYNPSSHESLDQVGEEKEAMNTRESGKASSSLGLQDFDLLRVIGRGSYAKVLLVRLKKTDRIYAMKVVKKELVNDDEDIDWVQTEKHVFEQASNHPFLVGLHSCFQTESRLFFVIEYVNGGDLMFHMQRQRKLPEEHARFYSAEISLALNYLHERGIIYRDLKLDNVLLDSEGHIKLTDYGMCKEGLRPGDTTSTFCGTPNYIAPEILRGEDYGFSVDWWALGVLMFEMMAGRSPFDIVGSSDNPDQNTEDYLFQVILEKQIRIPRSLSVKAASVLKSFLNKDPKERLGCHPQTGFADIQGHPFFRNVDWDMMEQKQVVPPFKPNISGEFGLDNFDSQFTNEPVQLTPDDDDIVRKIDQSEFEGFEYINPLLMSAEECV
Method in brief: as §1

MKNK1 = target: T4, MKNK1 (Homo sapiens, UniProt Q9BUB5)
T4 construct: purchased Nanosyn (enzymatic panel); SGC in-house recombinant human kinases (DSF panel); Invitrogen (ALK1-6)
Method in brief: as §1

PASK = target: T5, PASK (Homo sapiens, UniProt Q96RG2)
T5 construct: purchased Nanosyn (enzymatic panel); SGC in-house recombinant human kinases (DSF panel); Invitrogen (ALK1-6)
Method in brief: as §1

MET = target: T6, MET (Homo sapiens, UniProt P08581)
T6 construct: purchased Nanosyn (enzymatic panel); SGC in-house recombinant human kinases (DSF panel); Invitrogen (ALK1-6)
Method in brief: as §1

PRKG2 = target: T7, PRKG2 (Homo sapiens, UniProt Q13237)
T7 construct: purchased Nanosyn (enzymatic panel); SGC in-house recombinant human kinases (DSF panel); Invitrogen (ALK1-6)
T7 sequence (Q13237 1-762): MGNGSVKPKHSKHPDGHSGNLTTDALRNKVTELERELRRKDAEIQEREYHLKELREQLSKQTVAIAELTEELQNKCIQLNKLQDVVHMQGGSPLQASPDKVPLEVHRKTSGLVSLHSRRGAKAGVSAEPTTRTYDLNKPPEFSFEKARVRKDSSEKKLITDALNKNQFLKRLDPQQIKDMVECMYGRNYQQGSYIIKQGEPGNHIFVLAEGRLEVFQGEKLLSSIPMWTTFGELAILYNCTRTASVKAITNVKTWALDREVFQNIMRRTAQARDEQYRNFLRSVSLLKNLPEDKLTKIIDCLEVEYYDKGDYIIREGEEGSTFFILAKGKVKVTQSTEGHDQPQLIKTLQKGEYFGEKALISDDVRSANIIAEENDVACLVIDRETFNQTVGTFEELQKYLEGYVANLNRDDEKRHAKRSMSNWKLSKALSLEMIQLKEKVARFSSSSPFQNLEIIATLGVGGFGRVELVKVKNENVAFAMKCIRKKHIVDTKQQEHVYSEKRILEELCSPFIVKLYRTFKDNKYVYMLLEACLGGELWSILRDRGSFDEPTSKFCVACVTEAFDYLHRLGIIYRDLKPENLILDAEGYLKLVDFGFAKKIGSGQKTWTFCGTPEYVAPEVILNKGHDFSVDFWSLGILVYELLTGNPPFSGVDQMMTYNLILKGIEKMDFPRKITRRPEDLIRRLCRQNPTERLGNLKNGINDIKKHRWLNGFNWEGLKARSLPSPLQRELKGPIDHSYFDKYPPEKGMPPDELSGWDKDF
Method in brief: as §1

IRAK4 = target: T8, IRAK4 (Homo sapiens, UniProt Q9NWZ3)
T8 construct: purchased Nanosyn (enzymatic panel); SGC in-house recombinant human kinases (DSF panel); Invitrogen (ALK1-6)
T8 sequence (Q9NWZ3 1-460): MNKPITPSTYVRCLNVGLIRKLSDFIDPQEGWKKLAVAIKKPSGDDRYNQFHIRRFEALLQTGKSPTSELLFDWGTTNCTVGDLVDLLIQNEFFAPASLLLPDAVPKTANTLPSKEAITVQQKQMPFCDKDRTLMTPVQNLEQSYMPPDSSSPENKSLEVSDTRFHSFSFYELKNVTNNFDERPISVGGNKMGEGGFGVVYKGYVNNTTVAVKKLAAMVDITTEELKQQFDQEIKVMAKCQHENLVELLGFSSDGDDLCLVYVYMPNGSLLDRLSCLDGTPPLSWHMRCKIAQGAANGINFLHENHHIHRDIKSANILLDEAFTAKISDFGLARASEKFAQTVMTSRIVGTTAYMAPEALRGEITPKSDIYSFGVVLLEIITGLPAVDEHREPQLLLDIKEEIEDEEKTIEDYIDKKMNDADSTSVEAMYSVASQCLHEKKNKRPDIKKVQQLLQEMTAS
Method in brief: as §1

PIM3 = target: T9, PIM3 (Homo sapiens, UniProt Q86V86)
T9 construct: purchased Nanosyn (enzymatic panel); SGC in-house recombinant human kinases (DSF panel); Invitrogen (ALK1-6)
Method in brief: as §1

T1 sequence (P06239 whole entry): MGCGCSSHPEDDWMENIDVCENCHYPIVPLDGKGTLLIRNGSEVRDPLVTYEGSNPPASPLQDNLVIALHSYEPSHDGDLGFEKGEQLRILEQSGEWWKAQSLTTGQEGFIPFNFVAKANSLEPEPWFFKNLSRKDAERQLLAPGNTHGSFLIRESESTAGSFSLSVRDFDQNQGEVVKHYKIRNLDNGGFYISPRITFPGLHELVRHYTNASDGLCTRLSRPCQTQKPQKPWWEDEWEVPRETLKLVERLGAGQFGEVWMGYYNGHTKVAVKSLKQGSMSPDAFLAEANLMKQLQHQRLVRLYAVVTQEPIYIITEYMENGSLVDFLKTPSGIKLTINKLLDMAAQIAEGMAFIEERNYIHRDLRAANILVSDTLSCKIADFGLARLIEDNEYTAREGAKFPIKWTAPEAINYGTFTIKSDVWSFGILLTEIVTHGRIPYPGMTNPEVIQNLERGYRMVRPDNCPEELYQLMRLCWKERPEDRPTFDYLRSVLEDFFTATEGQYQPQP
T5 sequence (Q96RG2 whole entry): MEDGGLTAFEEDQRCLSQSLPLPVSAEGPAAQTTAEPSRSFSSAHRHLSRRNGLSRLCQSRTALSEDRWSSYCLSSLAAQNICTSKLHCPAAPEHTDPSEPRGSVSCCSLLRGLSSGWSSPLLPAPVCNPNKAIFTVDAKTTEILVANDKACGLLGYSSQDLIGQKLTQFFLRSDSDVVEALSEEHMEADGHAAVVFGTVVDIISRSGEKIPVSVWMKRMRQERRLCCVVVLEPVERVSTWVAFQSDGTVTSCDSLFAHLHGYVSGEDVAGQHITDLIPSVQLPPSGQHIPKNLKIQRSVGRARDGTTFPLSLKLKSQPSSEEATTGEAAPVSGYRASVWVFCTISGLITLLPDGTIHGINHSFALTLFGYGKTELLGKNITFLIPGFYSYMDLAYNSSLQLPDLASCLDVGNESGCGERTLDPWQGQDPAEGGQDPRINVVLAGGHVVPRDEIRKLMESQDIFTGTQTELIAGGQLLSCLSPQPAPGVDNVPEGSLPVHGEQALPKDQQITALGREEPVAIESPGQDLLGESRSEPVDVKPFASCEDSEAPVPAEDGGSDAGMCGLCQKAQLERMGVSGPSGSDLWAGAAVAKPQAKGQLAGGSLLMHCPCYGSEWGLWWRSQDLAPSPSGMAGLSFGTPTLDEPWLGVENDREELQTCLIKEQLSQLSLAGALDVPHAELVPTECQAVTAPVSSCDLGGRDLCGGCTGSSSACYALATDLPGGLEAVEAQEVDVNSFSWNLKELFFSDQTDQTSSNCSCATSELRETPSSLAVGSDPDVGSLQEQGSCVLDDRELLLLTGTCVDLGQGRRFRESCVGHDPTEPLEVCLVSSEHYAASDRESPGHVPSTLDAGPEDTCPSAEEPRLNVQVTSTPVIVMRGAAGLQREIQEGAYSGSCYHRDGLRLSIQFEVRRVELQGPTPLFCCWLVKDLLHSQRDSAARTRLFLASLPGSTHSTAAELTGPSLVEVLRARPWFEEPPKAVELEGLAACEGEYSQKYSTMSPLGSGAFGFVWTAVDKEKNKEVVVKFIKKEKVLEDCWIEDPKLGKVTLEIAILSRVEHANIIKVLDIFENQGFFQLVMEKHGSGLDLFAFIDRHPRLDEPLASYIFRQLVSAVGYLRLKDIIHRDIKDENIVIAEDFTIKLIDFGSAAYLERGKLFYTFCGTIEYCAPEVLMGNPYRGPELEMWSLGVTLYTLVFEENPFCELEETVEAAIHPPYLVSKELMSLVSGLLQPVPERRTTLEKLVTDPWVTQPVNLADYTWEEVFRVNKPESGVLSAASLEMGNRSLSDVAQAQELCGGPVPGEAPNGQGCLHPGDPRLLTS
T6 sequence (P08581 25-1390): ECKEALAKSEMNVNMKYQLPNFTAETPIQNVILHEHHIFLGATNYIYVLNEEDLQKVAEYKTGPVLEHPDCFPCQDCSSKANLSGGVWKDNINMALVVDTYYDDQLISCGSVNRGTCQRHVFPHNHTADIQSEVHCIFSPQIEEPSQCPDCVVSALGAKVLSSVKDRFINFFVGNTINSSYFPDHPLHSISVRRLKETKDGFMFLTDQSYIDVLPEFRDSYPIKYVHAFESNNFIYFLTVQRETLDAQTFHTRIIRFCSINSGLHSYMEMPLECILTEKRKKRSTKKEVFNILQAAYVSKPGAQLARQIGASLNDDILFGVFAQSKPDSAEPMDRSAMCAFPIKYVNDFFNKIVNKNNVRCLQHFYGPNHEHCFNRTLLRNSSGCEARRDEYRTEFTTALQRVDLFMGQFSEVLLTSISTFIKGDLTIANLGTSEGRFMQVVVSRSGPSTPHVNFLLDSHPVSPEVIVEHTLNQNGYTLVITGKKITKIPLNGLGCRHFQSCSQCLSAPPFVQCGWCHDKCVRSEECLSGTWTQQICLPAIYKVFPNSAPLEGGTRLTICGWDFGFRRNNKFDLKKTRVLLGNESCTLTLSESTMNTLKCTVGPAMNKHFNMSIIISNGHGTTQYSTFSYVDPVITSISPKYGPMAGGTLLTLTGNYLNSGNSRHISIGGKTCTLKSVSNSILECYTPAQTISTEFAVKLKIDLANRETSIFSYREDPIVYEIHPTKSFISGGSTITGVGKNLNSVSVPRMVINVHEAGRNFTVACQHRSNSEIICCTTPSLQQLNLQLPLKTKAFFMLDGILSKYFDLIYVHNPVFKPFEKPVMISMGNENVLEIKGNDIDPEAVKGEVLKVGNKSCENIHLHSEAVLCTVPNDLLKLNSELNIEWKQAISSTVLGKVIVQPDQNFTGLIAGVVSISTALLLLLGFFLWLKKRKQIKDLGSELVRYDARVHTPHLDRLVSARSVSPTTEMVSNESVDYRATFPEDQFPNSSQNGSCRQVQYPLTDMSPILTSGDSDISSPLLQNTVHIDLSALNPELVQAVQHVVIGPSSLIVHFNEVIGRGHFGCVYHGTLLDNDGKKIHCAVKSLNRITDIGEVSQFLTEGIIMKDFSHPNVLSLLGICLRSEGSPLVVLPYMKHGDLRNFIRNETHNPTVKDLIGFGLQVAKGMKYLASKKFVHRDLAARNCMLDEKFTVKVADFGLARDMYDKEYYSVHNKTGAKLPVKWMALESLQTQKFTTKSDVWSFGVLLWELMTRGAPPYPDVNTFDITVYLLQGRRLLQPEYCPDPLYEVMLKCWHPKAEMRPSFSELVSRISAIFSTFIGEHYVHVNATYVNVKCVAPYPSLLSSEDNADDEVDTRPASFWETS
T4 sequence (Q9BUB5 whole entry): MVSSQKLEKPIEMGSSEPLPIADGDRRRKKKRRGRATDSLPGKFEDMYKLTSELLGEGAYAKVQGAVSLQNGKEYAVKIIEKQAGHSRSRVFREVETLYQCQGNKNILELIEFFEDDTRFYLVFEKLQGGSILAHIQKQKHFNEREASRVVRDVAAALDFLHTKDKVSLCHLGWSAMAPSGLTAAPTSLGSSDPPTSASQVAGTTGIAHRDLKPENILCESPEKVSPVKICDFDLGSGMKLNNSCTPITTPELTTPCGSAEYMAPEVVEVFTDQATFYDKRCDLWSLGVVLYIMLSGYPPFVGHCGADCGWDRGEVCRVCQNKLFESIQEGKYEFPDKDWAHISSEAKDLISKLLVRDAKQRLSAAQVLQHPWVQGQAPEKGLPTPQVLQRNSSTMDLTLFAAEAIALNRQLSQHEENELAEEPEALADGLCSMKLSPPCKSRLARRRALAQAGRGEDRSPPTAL

| Compound | inhibition at 0.1 µM (LCK) [%] | inhibition at 1 µM (LCK) [%] | inhibition at 0.1 µM (PRKX) [%] | inhibition at 1 µM (PRKX) [%] | inhibition at 0.1 µM (PKCι) [%] | inhibition at 1 µM (PKCι) [%] | inhibition at 0.1 µM (MKNK1) [%] | inhibition at 1 µM (MKNK1) [%] | inhibition at 0.1 µM (PASK) [%] | inhibition at 1 µM (PASK) [%] | inhibition at 0.1 µM (MET) [%] | inhibition at 1 µM (MET) [%] | inhibition at 0.1 µM (PRKG2) [%] | inhibition at 1 µM (PRKG2) [%] | inhibition at 0.1 µM (IRAK4) [%] | inhibition at 1 µM (IRAK4) [%] | inhibition at 0.1 µM (PIM3) [%] | inhibition at 1 µM (PIM3) [%] |
| --- | --- | --- | --- | --- | --- | --- | --- | --- | --- | --- | --- | --- | --- | --- | --- | --- | --- | --- |
| COc1cc(-c2cc(-c3cccc(O)c3)cnc2N)cc(OC)c1OC [K02288, 3-[6-amino-5-(3,4,5-trimethoxy-phenyl)-pyridin-3-yl]-phenol] | 13 | 58 | -1 | -1 | 0.3 | 1.6 | 0.7 | 1.3 | 1.1 | 0.6 | 0.6 | -2 | 1 | 5 | -1 | 0.3 | 2.3 | 5.9 |
| c1ccc2c(-c3cnn4cc(-c5ccc(N6CCNCC6)cc5)cnc34)ccnc2c1 [LDN-193189] | 12 | 46 | 0.2 | 1.2 | 1.4 | 1.5 | 7.1 | 37 | 1.9 | 1.4 | 6.2 | 8.4 | 1.7 | 9.3 | 0.7 | 1.9 | 2 | -1 |

From article PMC3639963, “A New Class of Small Molecule Inhibitor of BMP Signaling” (PLoS ONE, 2013)
